Measurements as given in BigSolDB 2.1.

## CC1=C(O)C(=O)C(C)O1 (stereo not drawn)
In 1,4-dioxane, 278.15 K
  solubility (mole fraction): 0.192
In 1,4-dioxane, 283.15 K
  solubility (mole fraction): 0.22
In 1,4-dioxane, 288.15 K
  solubility (mole fraction): 0.248
In 1,4-dioxane, 293.15 K
  solubility (mole fraction): 0.282
In 1,4-dioxane, 298.15 K
  solubility (mole fraction): 0.315
In 1,4-dioxane, 303.15 K
  solubility (mole fraction): 0.357
In 1,4-dioxane, 308.15 K
  solubility (mole fraction): 0.4
In 1,4-dioxane, 313.15 K
  solubility (mole fraction): 0.445
In DMF, 278.15 K
  solubility (mole fraction): 0.256
In DMF, 283.15 K
  solubility (mole fraction): 0.281
In DMF, 288.15 K
  solubility (mole fraction): 0.307
In DMF, 293.15 K
  solubility (mole fraction): 0.336
In DMF, 298.15 K
  solubility (mole fraction): 0.368
In DMF, 303.15 K
  solubility (mole fraction): 0.402
In DMF, 308.15 K
  solubility (mole fraction): 0.439
In DMF, 313.15 K
  solubility (mole fraction): 0.479
In acetone, 278.15 K
  solubility (mole fraction): 0.127
In acetone, 283.15 K
  solubility (mole fraction): 0.151
In acetone, 288.15 K
  solubility (mole fraction): 0.177
In acetone, 293.15 K
  solubility (mole fraction): 0.209
In acetone, 298.15 K
  solubility (mole fraction): 0.244
In acetone, 303.15 K
  solubility (mole fraction): 0.284
In acetone, 308.15 K
  solubility (mole fraction): 0.329
In acetone, 313.15 K
  solubility (mole fraction): 0.381
In acetonitrile, 278.15 K
  solubility (mole fraction): 0.0733
In acetonitrile, 283.15 K
  solubility (mole fraction): 0.0896
In acetonitrile, 288.15 K
  solubility (mole fraction): 0.11
In acetonitrile, 293.15 K
  solubility (mole fraction): 0.134
In acetonitrile, 298.15 K
  solubility (mole fraction): 0.164
In acetonitrile, 303.15 K
  solubility (mole fraction): 0.202
In acetonitrile, 308.15 K
  solubility (mole fraction): 0.248
In acetonitrile, 313.15 K
  solubility (mole fraction): 0.303
In chloroform, 278.15 K
  solubility (mole fraction): 0.256
In chloroform, 283.15 K
  solubility (mole fraction): 0.281
In chloroform, 288.15 K
  solubility (mole fraction): 0.307
In chloroform, 293.15 K
  solubility (mole fraction): 0.336
In chloroform, 298.15 K
  solubility (mole fraction): 0.368
In chloroform, 303.15 K
  solubility (mole fraction): 0.402
In chloroform, 308.15 K
  solubility (mole fraction): 0.439
In chloroform, 313.15 K
  solubility (mole fraction): 0.479
In cyclohexanone, 278.15 K
  solubility (mole fraction): 0.105
In cyclohexanone, 283.15 K
  solubility (mole fraction): 0.128
In cyclohexanone, 288.15 K
  solubility (mole fraction): 0.155
In cyclohexanone, 293.15 K
  solubility (mole fraction): 0.187
In cyclohexanone, 298.15 K
  solubility (mole fraction): 0.225
In cyclohexanone, 303.15 K
  solubility (mole fraction): 0.269
In cyclohexanone, 308.15 K
  solubility (mole fraction): 0.318
In cyclohexanone, 313.15 K
  solubility (mole fraction): 0.372
In dichloromethane, 278.15 K
  solubility (mole fraction): 0.139
In dichloromethane, 283.15 K
  solubility (mole fraction): 0.16
In dichloromethane, 288.15 K
  solubility (mole fraction): 0.189
In dichloromethane, 293.15 K
  solubility (mole fraction): 0.219
In dichloromethane, 298.15 K
  solubility (mole fraction): 0.254
In dichloromethane, 303.15 K
  solubility (mole fraction): 0.292
In dichloromethane, 308.15 K
  solubility (mole fraction): 0.337
In dichloromethane, 313.15 K
  solubility (mole fraction): 0.386
In isopropanol, 278.15 K
  solubility (mole fraction): 0.181
In isopropanol, 283.15 K
  solubility (mole fraction): 0.211
In isopropanol, 288.15 K
  solubility (mole fraction): 0.24
In isopropanol, 293.15 K
  solubility (mole fraction): 0.272
In isopropanol, 298.15 K
  solubility (mole fraction): 0.309
In isopropanol, 303.15 K
  solubility (mole fraction): 0.348
In isopropanol, 308.15 K
  solubility (mole fraction): 0.387
In isopropanol, 313.15 K
  solubility (mole fraction): 0.435
In methyl acetate, 278.15 K
  solubility (mole fraction): 0.139
In methyl acetate, 283.15 K
  solubility (mole fraction): 0.16
In methyl acetate, 288.15 K
  solubility (mole fraction): 0.189
In methyl acetate, 293.15 K
  solubility (mole fraction): 0.219
In methyl acetate, 298.15 K
  solubility (mole fraction): 0.254
In methyl acetate, 303.15 K
  solubility (mole fraction): 0.292
In methyl acetate, 308.15 K
  solubility (mole fraction): 0.337
In methyl acetate, 313.15 K
  solubility (mole fraction): 0.386
In n-propyl acetate, 278.15 K
  solubility (mole fraction): 0.139
In n-propyl acetate, 283.15 K
  solubility (mole fraction): 0.16
In n-propyl acetate, 288.15 K
  solubility (mole fraction): 0.189
In n-propyl acetate, 293.15 K
  solubility (mole fraction): 0.219
In n-propyl acetate, 298.15 K
  solubility (mole fraction): 0.254
In n-propyl acetate, 303.15 K
  solubility (mole fraction): 0.292
In n-propyl acetate, 308.15 K
  solubility (mole fraction): 0.337
In n-propyl acetate, 313.15 K
  solubility (mole fraction): 0.386
In sec-butanol, 278.15 K
  solubility (mole fraction): 0.105
In sec-butanol, 283.15 K
  solubility (mole fraction): 0.128
In sec-butanol, 288.15 K
  solubility (mole fraction): 0.155
In sec-butanol, 293.15 K
  solubility (mole fraction): 0.187
In sec-butanol, 298.15 K
  solubility (mole fraction): 0.225
In sec-butanol, 303.15 K
  solubility (mole fraction): 0.269
In sec-butanol, 308.15 K
  solubility (mole fraction): 0.318
In sec-butanol, 313.15 K
  solubility (mole fraction): 0.372
